We go through seven molecules from patent publication US10231956B2, “3-(1H-pyrrolo[3,2-C]pyridin-2-YL)-1 H-pyrazolo[4,3-B]pyridines and therapeutic uses thereof” (Samumed, LLC, priority 2015, dated 2019).

SMILES strings stand for the structures. Bounds are passed on as bounds.

Holding throughout (format): cell-based
Assay [1] has as its system Wnt activity (Sp5-Luc reporter, SW480 colon carcinoma cells). The assay can be described thus: Sp5-Luc reporter gene screening assay for Wnt activity in SW480 cells. Particulars: Homo sapiens; for EC50: luminescence, overnight incubation. The essentials:
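Luminescence read-out (BrightGlo) from stable Sp5-Luc SW480 cells, normalized to DMSO-only wells. Cells were treated overnight at 37° C in 1% FBS medium across a 1:3, 10-point series starting at 10 μM. EC50 from variable-slope four-parameter regression; percent inhibition at 10 μM given where EC50 >10 μM.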
(In a reporter assay the amount or activity of a reporter protein is the signal.)

For a further assay, the system named is SW480 colon cancer cells. The assay can be described thus: Cell viability assay (CellTiter-Blue) in SW480 colon cancer cells. As to conditions: Homo sapiens; for EC50: 96 h, four days, CellTiter-Blue. Summed up: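 Four-day viability readout in SW480 cells: compound at 0.0045–10 μM (1:3 series), DMSO controls in eight replicates, CellTiter-Blue fluorescence after ~3 h. Values are regression-derived EC50s, or percent inhibition at 10 μM when EC50 exceeds 10 μM.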
Background: Resazurin is reduced to fluorescent resorufin, in cell work by metabolically active cells.

Assay [2] relates to primary human fibroblasts derived from IPF patients (LL29 cells). The assay can be described thus: Inhibition of fibrotic process: αSMA staining in TGF-β1 treated LL29 fibroblasts. Particulars: Fibroblast, 96 h, TGF-β1 20 ng/mL, 4 days, % cells positive for αSMA. The essentials: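 LL29 cells at 1,500/well in F12 with 1% FBS, compounds at 1 μM–1.87 nM (11-point, 0.1% DMSO), TGF-β1 20 ng/mL added 1 h later, 4 days at 37 °C. SYTOX-positive cells excluded; % αSMA-positive cells by immunofluorescence imaging, normalized to TGF-β1/DMSO wells, triplicates fitted for EC50; above 10 μM, % inhibition at 10 μM given.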

The mark [3] stands for this setting: given for EC50 >10 μM, 10 μM, read-out: percent inhibition at 10 μM.

For `Cc1ccncc1-c1ccc2[nH]nc(-c3cc4c(N5CCN(C)CC5)nccc4[nH]3)c2n1` [Compound 229, 3-(4-(4-Methylpiperazin-1l-yl)-1H-pyrrolo[3,2-c]pyridin-2-yl)-5-(4-methylpyridin-3-yl)-1H-pyrazolo[4,3-b]pyridine], the values for the 50% effective concentration (EC50) (in assay [1]; with SW480 colon cancer cells; in assay [2]) were 0.828 µM, 0.824 µM and 0.949 µM, respectively.
For `CN(C)Cc1cncc(-c2ccc3[nH]nc(-c4cc5c(N6CCCCC6)nccc5[nH]4)c3n2)c1` [Compound 181, N,N-Dimethyl-1-(5-(3-(4-(piperidin-1l-yl)-1H-pyrrolo[3,2-c]pyridin-2-yl)-1H-pyrazolo[4,3-b]pyridin-5-yl)pyridin-3-yl)methanamine] the same measures were 4.17 µM, 2.7 µM and 1.59 µM.
`CN1CCN(c2nccc3[nH]c(-c4n[nH]c5ccc(-c6cncc(NC(=O)CC7CCNCC7)c6)nc45)cc23)CC1` [Compound 641, N-(5-(3-(4-(4-Methylpiperazin-1l-yl)-1H-pyrrolo[3,2-c]pyridin-2-yl)-1H-pyrazolo[4,3-b]pyridin-5-yl)pyridin-3-yl)-2-(piperidin-4-yl)acetamide]: the inhibition at 10 µM came out at 2.1% in assay [1] (setting [3]) and 16.3% with SW480 colon cancer cells (setting [3]). In addition, the figures for the EC50 (in assay [1]; in the assay with SW480 colon cancer cells; in assay [2]) were > 10 µM, > 10 µM and 5 µM, respectively.
On to `O=C(Nc1cncc(-c2ccc3[nH]nc(-c4cc5c(-c6ccccc6F)nccc5[nH]4)c3n2)c1)C1CC1` [Compound 76, N-(5-(3-(4-(2-Fluorophenyl)-1H-pyrrolo[3,2-c]pyridin-2-yl)-1H-pyrazolo [4,3-b]pyridin-5-yl)pyridin-3-yl)cyclopropanecarboxamide], for which the half-maximal effective concentration (EC50) in assay [1] worked out at 0.687 µM; in the assay on SW480 colon cancer cells, 0.596 µM; in assay [2] it was 3.52 µM.
For `CC(C)CC(=O)Nc1cncc(-c2ccc3[nH]nc(-c4cc5c(-c6ccccc6F)nccc5[nH]4)c3n2)c1` [Compound 58, N-(5-(3-(4-(2-Fluorophenyl)-1H-pyrrolo[3,2-c]pyridin-2-yl)-1H-pyrazolo [4,3-b]pyridin-5-yl)pyridin-3-yl)-3-methylbutanamide] the same measures were 0.649 µM, 0.37 µM and 0.37 µM.
The like results for `O=C(Nc1cncc(-c2ccc3[nH]nc(-c4cc5c(-c6cccc(F)c6)nccc5[nH]4)c3n2)c1)C1CCCCC1` [Compound 23, N-(5-(3-(4-(3-Fluorophenyl)-1H-pyrrolo[3,2-c]pyridin-2-yl)-1H-pyrazolo [4,3-b]pyridin-5-yl)pyridin-3-yl)cyclohexanecarboxamide] were, in that order, 1.28 µM, 0.505 µM and 0.463 µM.
Take `c1cncc(-c2ccc3[nH]nc(-c4cc5cnccc5[nH]4)c3n2)c1` [Compound 256, 5-(Pyridin-3-yl)-3-(1H-pyrrolo[3,2-c]pyridin-2-yl)-1H-pyrazolo[4,3-b]pyridine]: the EC50 in assay [1] was found to be 0.251 µM; with SW480 colon cancer cells, 0.161 µM; in assay [2], 0.243 µM.

Usually EC50 stands for the concentration at which the effect is half-maximal. As a reminder, the inhibition is the relative decrease from the control value, in per cent.
